{
  "source": "patent US12054509B2",
  "about": "“Antimicrobial compounds, compositions, and uses thereof” (Lakewood Amedex, Inc., priority 2017, dated 2024)",
  "key": {"[1]": {"tested_on": "methicillin susceptible S. aureus (ATCC 29213)", "assay": "Bacterial cytological profiling at pH 4, 5.5, 7 (Example 8), S. aureus", "format": "cell-based", "conditions": "for cell permeability / cell viability: pH 4", "protocol": "(§1) This bacterial cytological profiling (BCP) investigation uses methods and materials described previously by Nonejuie, P., Burkart, M., Poglianoa, K., Pogiano, J. (2013). Bacterial cytological profiling rapidly identifies the cellular pathways targeted by antibacterial molecules. Proc. Natl. Acad. Sci. U.S.A. 110(40):16169-16174. doi: 10.1073/pnas.1311066110.\nFor viable cell counts, cells are grown to OD600≈0.4 and diluted 1:1 into buffered or unbuffered media containing various compound concentrations. Samples are then collected and serially diluted (1:10) on a 96 well plate. Five microliters from each well are spotted on LB plates, incubated at 30° C., and viable cells are counted the next day.\nSamples are collected at 10, 30, 120, and 240 min of exposure for viable cell count and imaging. For imaging, E. coli and S. aureus 200 μL of treated cells per time point are stained with 0.8 μg/mL FM4-64, 1.5 μg/mL DAPI, and 0.4 μM SYTOXGreen (Molecular Probes/Invitrogen). P. aeruginosa samples are stained 0.4 μM SYTOX Green, 28 μg/mL DAN, and 1 μg/mL FM 4-64. Cells are transferred to an agarose pad (20% LB, 1% agarose) for imaging.\nFor Nu-3 and Nu-8 stocks (at pH 4, 5.5 and 7), stock concentration is 500 mg/mL. For pH 4, the stocks are prepared by dissolving Nu-3 in 25 mM citrate buffer and Nu-8 in 350 mM citric acid. For pH 5.5, the stocks are prepared by dissolving Nu-3 in 25 mM citric-phosphate and Nu-8 in 25 mM critic. For pH 7, the stocks are prepared by dissolving Nu-3 and Nu-8 in 25 mM Sorensen phosphate buffer. 2×LB (lysogeny broth) solutions are prepared with 50 mM citrate buffer for pH 4, 50 mM citrate-phosphate buffer for pH 5.5, and 50 mM Sorensen phosphate buffer for pH 7."}, "[2]": {"tested_on": "E. coli ATCC 25922 or P. aeruginosa K2732", "assay": "Bacterial cytological profiling (Example 6), cell viability, strain not stated", "format": "cell-based", "conditions": "within minutes, from initial 10^9 CFU/mL", "protocol": "as §1, with “study” for “investigation”\nWild type strains of E. coli ATCC 25922 or P. aeruginosa K2732 are grown in rich media (unbuffered 2× Lysogeny broth [LB]) at 30 C to an OD600˜0.4. These cultures are then split and each sample treated with the appropriate concentration of Nu-8 in unbuffered or buffered LB (final mixture OD600˜0.1). Cells exposed without Nu-8 are buffered to pH 4 with phosphoric acid.\nThe BCP is performed in LB media buffered to pH 4. The minimum inhibitory concentration (MIC) is measured for Nu-3, Nu-4, Nu-5, and Nu-8 against each bacterial strain. As one of ordinary skill in the art understands, minimum inhibitory concentrations are the lowest concentration of an antimicrobial that will inhibit the visible growth of a microorganism after overnight incubation. […] Cellular viability is assayed at three time points (5 minutes and 4 and 24 h following the onset of treatment)."}, "[3]": {"tested_on": "Escherichia coli (strain CFT073, TPPS 1041)", "assay": "Urinary tract infection model in BALB/c mice, initial efficacy (Example 10)", "format": "in vivo", "conditions": "1025 mg/kg pH 3.5 transurethral at 24 hr", "source_text": "Female BALB/c mice (20-22 g) ordered from Envigo are acclimated to housing conditions and handled in accordance with Animal Use Protocol (AUP) number TP-08. Animals are fed irradiated Teklad Global 29 18 Rodent Diet and water ad libitum. Mice are housed 6/cage in static cages with irradiated ⅛″ Teklad corn cobbedding 7902 inside bioBubble® clean rooms that provide H.E.P.A filtered air into the bubble environment at 100 complete air changes per hour. The environment is controlled to a temperature range of 74°±4° F. and a humidity range of 30-70%. All procedures carried out in this experiment are conducted in compliance with the laws, regulations, and guidelines of the National Institutes of Health and with the approval of the TransPharm Preclinical Solutions Animal Care and Use Committee.\nA clinical isolate of Escherichia coli (strain CFT073, TPPS 1041) are procured from the University of Michigan.\nThe organism is grown overnight at 37° C. in ambient atmosphere on trypticase soy agar plates supplemented with 5% sheep blood cells. The culture is aseptically swabbed and transferred to tubes of trypticase soy broth. The optical density is determined at 600 nm. The culture is diluted to provide an inoculum of approximately 7.5 log10 CFU per mouse in a volume of 30 μL. Instillation of the bacterial challenge constituted time 0 hour for the study. Inoculum counts are estimated before inoculation by optical density and confirmed after inoculation by dilution and back counts.\nOne hour prior to bacterial challenge, water is removed from animal cages. […]\nThe primary endpoint used to assess progress of the infection is mean bacterial burden per gram of urinary bladder tissue. […] Colony forming units (CFU) are enumerated and the total bacterial burden per gram of urinary bladder tissue homogenate is calculated.\nThe geometric mean CFU, along with standard error of the mean (SEM), are calculated using Microsoft Excel and bar charts are prepared for the data using GraphPad Prism v. […]"}},
  "data": [
    {"smiles": "CCCCOP(=O)(O)OC[C@H]1O[C@@H](n2ccc(N)nc2=O)C[C@@H]1OP(=O)(O)OCCCC", "note": "[Nu-8, sodium ((2R,3S,5R)-5-(4-amino-2-oxopyrimidin-1(2H)-yl)-3-((butoxyoxidophosphor-yl)oxy)tetrahydrofuran-2-yl)methyl butyl phosphate]", "values": [
      {"measurement": "cell permeability", "setting": "[1]; 125 mg/mL", "value": "< 4.3", "unit": "%"},
      {"measurement": "cell viability", "setting": "[1]; 125 mg/mL, by 240 min, from 10^7.5 CFU/mL at study start", "value": "10^3 CFU/mL"},
      {"measurement": "cell permeability", "setting": "[1]; 250 mg/mL", "value": "~60", "unit": "%"},
      {"measurement": "cell viability", "setting": "[1]; 250 mg/mL, within 10 min", "value": "~10^4 CFU/mL"},
      {"measurement": "cell growth", "setting": "[1]; pH 5.5 and 7, 125 mg/mL and 250 mg/mL, up to 24 h", "value": "slightly reduce cell growth"},
      {"measurement": "cell viability", "setting": "[2]", "value": "< 10^2 CFU/mL"},
      {"measurement": "mean bladder CFU burden", "setting": "[3]; 20 minutes post-treatment", "value": 2.9, "unit": "log10 CFU"},
      {"measurement": "mean bladder CFU burden", "setting": "[3]; 60 minutes post-treatment", "value": 3.7, "unit": "log10 CFU"}
    ]}
  ]
}
